{"source": "PubChem BioAssay AID1963962", "about": "(Molecular Pharmacology Branch, DTP, NCI, 2024);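 also: spheroids exposed to agents for 7 days before read-out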;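 as to viability, T/C: luminescence used as surrogate of cell viability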", "system": "967376-340-R-J2-PDC multicell spheroid viability", "assay": "Anticancer human tumor 967376-340-R-J2-PDC patient-derived colon adenocarcinoma cell line growth inhibition [PI3K]", "details": "for IC50: curve of first compound; for viability, T/C: stronger effect = lower value", "how_it_was_run": "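Viability of mixed-cell spheroids was determined after exposure to pairwise combinations, one partner being inavolisib, alpelisib, duvelisib or copanlisib. Highest tested concentration matched clinical Cmax where known and 10 microM where not, descending in half-log steps.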", "data": [{"smiles": "CC1(C)CCC(CN2CCN(c3ccc(C(=O)NS(=O)(=O)c4ccc(NCC5CCOCC5)c([N+](=O)[O-])c4)c(Oc4cnc5[nH]ccc5c4)c3)CC2)=C(c2ccc(Cl)cc2)C1", "note": "+ CC(Nc1ncnc2nc[nH]c12)c1cc2cccc(Cl)c2c(=O)n1-c1ccccc1", "values": [{"measurement": "IC50", "setting": "second compound 0.0316 µM", "value": "> 10", "unit": "µM"}, {"measurement": "IC50", "setting": "second compound 0.1 µM", "value": "> 10", "unit": "µM"}, {"measurement": "IC50", "setting": "second compound 0.316 µM", "value": "> 10", "unit": "µM"}, {"measurement": "IC50", "setting": "second compound 1 µM", "value": "> 10", "unit": "µM"}, {"measurement": "IC50", "setting": "second compound 3.16 µM", "value": "> 10", "unit": "µM"}, {"measurement": "IC50", "setting": "second compound 10 µM", "value": "> 10", "unit": "µM"}, {"measurement": "viability, T/C", "setting": "second compound 0.0316 µM, first compound 0.0316 µM", "value": 92, "unit": "%"}, {"measurement": "viability, T/C", "setting": "second compound 0.0316 µM, first compound 0.1 µM", "value": 83.4, "unit": "%"}, {"measurement": "viability, T/C", "setting": "second compound 0.0316 µM, first compound 0.316 µM", "value": 98.1, "unit": "%"}, {"measurement": "viability, T/C", "setting": "second compound 0.0316 µM, first compound 1 µM", "value": 83.8, "unit": "%"}, {"measurement": "viability, T/C", "setting": "second compound 0.0316 µM, first compound 3.16 µM", "value": 75.6, "unit": "%"}, {"measurement": "viability, T/C", "setting": "second compound 0.0316 µM, first compound 10 µM", "value": 92.2, "unit": "%"}, {"measurement": "viability, T/C", "setting": "second compound 0.1 µM, first compound 0.0316 µM", "value": 95.1, "unit": "%"}, {"measurement": "viability, T/C", "setting": "second compound 0.1 µM, first compound 0.1 µM", "value": 79.7, "unit": "%"}, {"measurement": "viability, T/C", "setting": "second compound 0.1 µM, first compound 0.316 µM", "value": 82.7, "unit": "%"}, {"measurement": "viability, T/C", "setting": "second compound 0.1 µM, first compound 1 µM", "value": 87.3, "unit": "%"}, {"measurement": "viability, T/C", "setting": "second compound 0.1 µM, first compound 3.16 µM", "value": 86.3, "unit": "%"}, {"measurement": "viability, T/C", "setting": "second compound 0.1 µM, first compound 10 µM", "value": 75.2, "unit": "%"}, {"measurement": "viability, T/C", "setting": "second compound 0.316 µM, first compound 0.0316 µM", "value": 102, "unit": "%"}, {"measurement": "viability, T/C", "setting": "second compound 0.316 µM, first compound 0.1 µM", "value": 101, "unit": "%"}, {"measurement": "viability, T/C", "setting": "second compound 0.316 µM, first compound 0.316 µM", "value": 83, "unit": "%"}, {"measurement": "viability, T/C", "setting": "second compound 0.316 µM, first compound 1 µM", "value": 83.1, "unit": "%"}, {"measurement": "viability, T/C", "setting": "second compound 0.316 µM, first compound 3.16 µM", "value": 86.5, "unit": "%"}, {"measurement": "viability, T/C", "setting": "second compound 0.316 µM, first compound 10 µM", "value": 71.6, "unit": "%"}, {"measurement": "viability, T/C", "setting": "second compound 1 µM, first compound 0.0316 µM", "value": 88.5, "unit": "%"}, {"measurement": "viability, T/C", "setting": "second compound 1 µM, first compound 0.1 µM", "value": 115, "unit": "%"}, {"measurement": "viability, T/C", "setting": "second compound 1 µM, first compound 0.316 µM", "value": 116, "unit": "%"}, {"measurement": "viability, T/C", "setting": "second compound 1 µM, first compound 1 µM", "value": 87.8, "unit": "%"}, {"measurement": "viability, T/C", "setting": "second compound 1 µM, first compound 3.16 µM", "value": 79, "unit": "%"}, {"measurement": "viability, T/C", "setting": "second compound 1 µM, first compound 10 µM", "value": 74.1, "unit": "%"}, {"measurement": "viability, T/C", "setting": "second compound 3.16 µM, first compound 0.0316 µM", "value": 90.4, "unit": "%"}, {"measurement": "viability, T/C", "setting": "second compound 3.16 µM, first compound 0.1 µM", "value": 86, "unit": "%"}, {"measurement": "viability, T/C", "setting": "second compound 3.16 µM, first compound 0.316 µM", "value": 67.6, "unit": "%"}, {"measurement": "viability, T/C", "setting": "second compound 3.16 µM, first compound 1 µM", "value": 82.9, "unit": "%"}, {"measurement": "viability, T/C", "setting": "second compound 3.16 µM, first compound 3.16 µM", "value": 79.1, "unit": "%"}, {"measurement": "viability, T/C", "setting": "second compound 3.16 µM, first compound 10 µM", "value": 101, "unit": "%"}, {"measurement": "viability, T/C", "setting": "second compound 10 µM, first compound 0.0316 µM", "value": 55.1, "unit": "%"}, {"measurement": "viability, T/C", "setting": "second compound 10 µM, first compound 0.1 µM", "value": 73.3, "unit": "%"}, {"measurement": "viability, T/C", "setting": "second compound 10 µM, first compound 0.316 µM", "value": 83.4, "unit": "%"}, {"measurement": "viability, T/C", "setting": "second compound 10 µM, first compound 1 µM", "value": 74.7, "unit": "%"}, {"measurement": "viability, T/C", "setting": "second compound 10 µM, first compound 3.16 µM", "value": 68, "unit": "%"}, {"measurement": "viability, T/C", "setting": "second compound 10 µM, first compound 10 µM", "value": 76.3, "unit": "%"}]}]}
